Structures can show the parent of a compound that is named as a salt. Marks after values point to notes of the source that are not given here.
Tests used:
[1] = tested on: worms containing Punc-54::Q82::GFP+Punc-54::torsinA+Punc54::torsinA (ΔE); test: Screen for reduction of polyglutamine protein aggregates in worms with wt and mutant torsinA; assay type: in vivo, C. elegans; details: differentiated by Q82::GFP lines without torsinA, with wt torsinA or with mutant torsinA
Procedure: (§1) C elegans nematodes were grown at 20° C. on NGM plates as described by Brenner (Brenner, Genetics, 1974, 77: 71-94). Several transgenic C. elegans lines were used for primary screens of the Prestwick small molecule library. A transgenic worm line expressing Punc-54::Q82-GFP; with both wild type (“wt”) (Punc=54: :torsinA) or mutant (Punc-54::torsinA(ΔE)). Torsin-A expresses a phenotype that results in visible protein aggregation under fluorescent microscope. Transgenic worms were plated on drug plates and progeny were studied for a return to soluble protein.
(§2) Drugs were administered to C. elegans according to a standard procedure (Rand and Johnson, Methods Cell Biol, 1995, 48: 187-204), by mixing the solubilized drug with the agar medium on which the worms are grown. This mode of administration allows the continuous exposure of worms to the drug.
Each drug was first dissolved in an appropriate solvent, followed by adding the drug solution into pre-autoclaved media, with the volume of drug solution already taken into account. […] Each plate was seeded with 100 μl concentrated E. coli OP50 bacteria.
(§3) The screening assays used to identify the compounds use protein aggregation readouts to determine the specificities of molecular action. […]
(§4) The methods for the aggregate analysis assay are described in Caldwell et al. (Hum Mol Genetics, 2003, 12(3): 307-319). […] MetaMorph Software (Universal Imaging Inc.) was used for pseudocoloration of images, image overlay, and aggregate size quantitation. For each worm line analyzed, average aggregate size was determined by capturing images of all aggregates in the posterior region of 30 L3-staged animals (for Q82::GFP aggregates) or all aggregates in 30 adult animals/day (for Q19::GFP analyses) at 1000× magnification. […]
(§5) To see the effect of the candidate compounds on suppressing protein misfolding and aggregation, five gravid adult worms were placed onto each drug plate and grown at 20° C. for approximately 3 days. Thirty Fl worms at L3 stage and young adult stage were counted for aggregate number.

[2] = tested on: worms expressing Punc-54::Q82::GFP+Punc-54::torsinA with wt torsinA only; test: Protein aggregate assay in worms with wt torsinA only; assay type: in vivo, C. elegans
Procedure: as §1, §2
Each drug was first dissolved in an appropriate solvent, followed by adding the drug solution into pre-autoclaved media, with the volume of drug solution already taken into account. […]
as §3, §4, §5

[3] = tested on: protein misfolding and aggregation in transgenic worms; test: Preventative assay of protein aggregation (drug from hatching to L2 stage); assay type: in vivo, C. elegans; details: exposure from hatching to L2 stage; scored at L3 and young adult
Procedure: To see the preventative effects of the candidate drug compounds on protein misfolding and aggregation, five gravid adult worms were placed onto each drug plate and grown at 20° C. for approximately 3 days. 35-40 Fl worms at L2 stage were picked and transferred to a control plate with the same concentration of control solvent compared to the drug plate. Thirty worms at L3 stage were counted for aggregate number 8 hours later. Thirty young adults were analyzed 32 hours later.
To calculate the scaled effectiveness of special regimen of drugs on worms based on standardized decrease in protein aggregates. The following formula was used: (A−B)/(A−C)×100%, where
A=number of aggregates for worms growing on solvent control plates
B=number of aggregates for worms grown on the specific drug plate for the entire life of the worms
C=number of aggregates for worms that received pre-L2 exposure and were then removed to solvent control plates
If the regimen has no effect, the value would equal 0%. Conversely, if the regimen was as effective as raising the worms on the drug for their entire life, the value would equal 100%.

[4] = tested on: Pdat-1::GFP+Pdat-1::α-synuclein+Pdat-1::torsinA worms; test: α-synuclein toxicity assay, wt torsinA; assay type: in vivo, C. elegans
From the text: (§6) We have previously shown that torsinA can prevent dopamine (“DA”) neuron degeneration resulting from overexpression of α-synuclein in the DA neurons of C. elegans, while torsinA (“ΔE”) has a reduced neuroprotection (Cao et al., J Neurosci, 2005, 25(1): 3801-3812). Specifically, only 26.1±5.3% of the worms expressing Pdat-1::GFP+Pdat-1::α-synuclein maintained all 4 wildtype CEP DA neurons as 4 day adults while the percentages of the worms expressing Pdat-1::GFP+Pdat-1::α-synuclein+Pdat-1::torsinA and Pdat-1::GFP+Pdat-1::α-synuclein+Pdat-1:: torsinA (ΔE) are 57.3±1.6% and 42.2±7.3%, respectively (Cao et al., J Neurosci, 2005, 25(1): 3801-3812) (FIG. 8).
(§7) All molecules are coded by Prestwick Library number. TorsinA-dependent compounds identified from the aggregation assay have torsinA-specific effects and, therefore, are likely to function in the same manner in the α-synuclein toxicity assay. All three α-synuclein transgenic lines were exposed to the five torsinA-dependent compounds to determine their torsinA-specificity (FIG. 9). As expected, none of these compounds had any effect in Pdat-1::GFP+Pdat-1::α-synuclein when torsinA expression is absent.

[5] = tested on: Pdat-1::GFP+Pdat-1::α-synuclein+Pdat-1:: torsinA (ΔE) worms; test: α-synuclein toxicity assay, mutant torsinA; assay type: in vivo, C. elegans
From the text: as §6, §7

[6] = 1 gram/kg dose, fasting normal individual; cited from earlier work
[7] = tested on: worms expressing Punc-54::Q82::GFP+Punc-54::torsinA (ΔE) with a mutant torsinA only; test: Protein aggregate assay in worms with mutant torsinA only; assay type: in vivo, C. elegans
Procedure: C elegans nematodes were grown at 20° C. on NGM plates as described by Brenner (Brenner, Genetics, 1974, 77: 71-94). Several transgenic C. elegans lines were used for primary screens of the Prestwick small molecule library. A transgenic worm line expressing Punc-54::Q82-GFP; with both wild type (“wt”) (Punc=54: :torsinA) or mutant (Punc-54::torsinA(ΔE)). Torsin-A expresses a phenotype that results in visible protein aggregation under fluorescent microscope. Transgenic worms were plated on drug plates and progeny were studied for a return to soluble protein. […]
as §3, §4

[8] = tested on: transgenic worms containing the transgene Pdat-1::GFP without any torsinA expression; test: 6-OHDA dopaminergic neurodegeneration in worms without torsinA; assay type: in vivo, C. elegans; details: no torsinA expression
[9] = tested on: transgenic worm line Pdat-1::CAT-2; test: Neurodegeneration by overexpression of cat-2 (tyrosine hydroxylase); assay type: in vivo, C. elegans
From the text: Overexpression of cat-2, the worm homologue for tyrosine hydroxylase, results in increased intraneuronal dopamine production and a characteristic loss of dopaminergic neurons in 75% of transgenic worms as compared to wild type (Cao et al., J Neurosci, 25(1):3801-3812). Co-expression of worm or human torsin proteins reduces the loss of dopaminergic neurons to a slight degree although neuronal degeneration is still present. The purpose of these experiments was to determine the effect of small molecule compounds in the Prestwick library in another different C. elegans model of neurodegeneration.
Worms were cultured using the same methods described above. A transgenic worm line expressing Pdat-1::CAT-2 expresses a phenotype that results in visible neurodegeneration at all developmental stages in an integrated line, in which only approximately 55% of 7 day old animals maintained all four CEP neurons. […] Compound 166 is an example of one such compound.
To further examine the neuroprotective effect of meclofenamic acid and lidocaine, we used a transgenic line (Pdat-1::CAT-2) we previously described (Cao et al., J Neurosci, 2005, 25(1): 3801-3812). Overexpression of cat-2, the C. elegans homolog of the tyrosine hydroxylase (“TH”) gene, causes a high level of DA production and as a result, DA neuron degeneration is observed (Cao et al., J Neurosci, 2005, 25(1): 3801-3812). […] We also tested whether meclofenamic acid was able to suppress CAT-2-induced neurodegeneration. […] Therefore, meclofenamic acid can protect DA neurons from degeneration produced by overexpression of the dopamine precursor, tyrosine hydroxylase.

[10] = tested on: GFP::DAT-1; test: Pdat-1::GFP::DAT-1 expression within DA neurons; assay type: in vivo, C. elegans; details: for Neurons with cell body and dendritic/axonal GFP: water control 70%; for Neurons with cell body and dendritic/axonal GFP / Mean pixel intensity of cell bodies ± SEM (fluorescence intensity): sodium salt; for Mean pixel intensity of cell bodies ± SEM (fluorescence intensity): water control 1970 ± 80, compounds at 1.85, 1.49, 1.86 mM
[11] = Pdat-1::GFP::DAT-1, listed as Meclofenamic acid sodium salt
[12] = Pdat-1::GFP::DAT-1, listed as meclofenamic acid

Structure (SMILES)	Specificity in worm assay [1]	reduction of protein aggregation [2]	preventative effect on protein aggregation [3]	enhanced wild type DA neuron survival [4]	enhanced DA neuron survival [5]	half-life [6]	reduction of aggregation [7]	reduction of 6-OHDA-mediated neurodegeneration [8]	neuroprotective effect against CAT-2-induced neurodegeneration ([9]; Pdat-1::CAT-2) [%]	neuroprotective action on dopaminergic neurons overexpressing cat-2 ([9]; Pdat-1::CAT-2, result in words)	Worms with no GFP ([10]; Pdat-1::GFP::DAT-1, water control 0%) [%]	Neurons with cell body GFP only ([10]; Pdat-1::GFP::DAT-1, water control 30%) [%^e]	Neurons with cell body and dendritic/axonal GFP [10, 11] [%^d]	Neurons with cell body and dendritic/axonal GFP [10, 12] [%]	Mean pixel intensity of cell bodies ± SEM (fluorescence intensity) [10, 11] [A.U.]	Mean pixel intensity of cell bodies ± SEM (fluorescence intensity) [10, 12] [A.U.]	effect on GFP::DAT-1 level ([10]; result in words)
CCn1cc(C(=O)O)c(=O)c2ccc(C)nc21 [Compound 187, Nalidixic Acid]	wt torsinA	reduced protein aggregation	seem to be beneficial	28.9±4.9%	no significant neuroprotection	about 90 minutes	–	–	–	–	–	–	–	–	–	–	–
Cc1ccc(Cl)c(Nc2ccccc2C(=O)O)c1Cl [Compound 206, Meclofenamic acid sodium salt]	–	–	seem to be beneficial	failed to show any significant neuroprotection	25±1.2%	–	reduced aggregation	reduced the 6-OHDA-mediated neurodegeneration	19±1.1	demonstrated a reduction in the standardized decrease in dopaminergic neurodegeneration	4.2	51.1	44.7	44.7	1740 ± 64	1740	can down-regulate the level of DAT-1 protein directly

Source: patent US20070203079A1, “Methods of using small molecule compounds for neuroprotection” (priority 2005, published 2007)
